Data from the NIST ThermoML archive (doi:10.1021/je0602824).
± gives the expanded uncertainty stated by the source.

Tests used:
[1] = xn = mol fraction of the nth substance listed; conditions: 101 kPa, Liquid, x1 = 1
[2] = 101 kPa, Liquid

## O [water] + CCn1cc[n+](C)c1.O=S(=O)([O-])C(F)(F)F
[1]; 278.15 K
  mass density: 999.99 ± 0.54 kg/m3
[1]; 308.15 K
  mass density: 994.06 ± 0.58 kg/m3
[1]; 328.15 K
  mass density: 985.71 ± 0.63 kg/m3
[1]; 338.15 K
  mass density: 980.56 ± 0.67 kg/m3
[1]; 348.15 K
  mass density: 974.84 ± 0.7 kg/m3

## CCOS(=O)(=O)[O-].CCn1cc[n+](C)c1 [1-ethyl-3-methylimidazolium ethyl sulfate]
[2]; 278.15 K
  mass density: 1251.12 ± 3.3 kg/m3
  viscosity: 308 ± 46 mPa·s
[2]; 288.15 K
  mass density: 1244.13 ± 3.3 kg/m3
  viscosity: 166 ± 17 mPa·s
[2]; 298.15 K
  mass density: 1237.37 ± 3.2 kg/m3
  viscosity: 95 ± 6 mPa·s
[2]; 308.15 K
  mass density: 1230.61 ± 3.2 kg/m3
  viscosity: 62 ± 4 mPa·s
[2]; 318.15 K
  mass density: 1223.9 ± 3.1 kg/m3
  viscosity: 41 ± 2 mPa·s
[2]; 328.15 K
  mass density: 1217.23 ± 3 kg/m3
  viscosity: 30 ± 2 mPa·s
[2]; 338.15 K
  mass density: 1210.6 ± 3 kg/m3
  viscosity: 21 ± 2 mPa·s
[2]; 348.15 K
  mass density: 1204.01 ± 2.9 kg/m3
  viscosity: 17 ± 2 mPa·s

## CCn1cc[n+](C)c1.O=S(=O)([O-])C(F)(F)F [1-ethyl-3-methylimidazolium trifluoromethanesulfonate]
[2]; 278.15 K
  mass density: 1400.52 ± 14 kg/m3
  viscosity: 96 ± 7 mPa·s
[2]; 288.15 K
  mass density: 1392.04 ± 13 kg/m3
  viscosity: 61 ± 4 mPa·s
[2]; 298.15 K
  mass density: 1383.6 ± 13 kg/m3
  viscosity: 41 ± 2 mPa·s
[2]; 308.15 K
  mass density: 1375.22 ± 13 kg/m3
  viscosity: 29 ± 2 mPa·s
[2]; 318.15 K
  mass density: 1366.9 ± 13 kg/m3
  viscosity: 21 ± 2 mPa·s
[2]; 328.15 K
  mass density: 1358.63 ± 13 kg/m3
  viscosity: 16 ± 2 mPa·s
[2]; 338.15 K
  mass density: 1350.43 ± 12 kg/m3
  viscosity: 13 ± 2 mPa·s
[2]; 348.15 K
  mass density: 1342.3 ± 12 kg/m3
  viscosity: 11 ± 2 mPa·s

## O [water] + CCOS(=O)(=O)[O-].CCn1cc[n+](C)c1
[1]; 278.15 K
  mass density: 999.99 ± 0.54 kg/m3
[1]; 308.15 K
  mass density: 994.06 ± 0.58 kg/m3
[1]; 328.15 K
  mass density: 985.71 ± 0.63 kg/m3
[1]; 338.15 K
  mass density: 980.56 ± 0.67 kg/m3
[1]; 348.15 K
  mass density: 974.84 ± 0.7 kg/m3

## O [water] + CCn1cc[n+](C)c1.O=C([O-])C(F)(F)F
[1]; 278.15 K
  mass density: 999.99 ± 0.54 kg/m3
[1]; 308.15 K
  mass density: 994.06 ± 0.58 kg/m3
[1]; 328.15 K
  mass density: 985.71 ± 0.63 kg/m3
[1]; 338.15 K
  mass density: 980.56 ± 0.67 kg/m3
[1]; 348.15 K
  mass density: 974.84 ± 0.7 kg/m3

## CCn1cc[n+](C)c1.O=C([O-])C(F)(F)F [1-ethyl-3-methylimidazolium trifluoroacetate]
[2]; 278.15 K
  mass density: 1306.89 ± 12 kg/m3
  viscosity: 78 ± 6 mPa·s
[2]; 288.15 K
  mass density: 1298.81 ± 11 kg/m3
  viscosity: 48 ± 3 mPa·s
[2]; 298.15 K
  mass density: 1290.8 ± 11 kg/m3
  viscosity: 32 ± 2 mPa·s
[2]; 308.15 K
  mass density: 1282.85 ± 11 kg/m3
  viscosity: 23 ± 2 mPa·s
[2]; 318.15 K
  mass density: 1274.95 ± 11 kg/m3
  viscosity: 17 ± 2 mPa·s
[2]; 328.15 K
  mass density: 1267.12 ± 11 kg/m3
  viscosity: 13 ± 2 mPa·s
[2]; 338.15 K
  mass density: 1259.35 ± 11 kg/m3
  viscosity: 10 ± 2 mPa·s
[2]; 348.15 K
  mass density: 1251.63 ± 10 kg/m3
  viscosity: 9 ± 2 mPa·s
